{"source": "patent US4963566A", "about": "“Benzimidazolyl-sulfinyl-tetrahydroquinolines” (Otsuka Pharmaceutical Co., Ltd., priority 1986, dated 1990)", "data": [{"target": "T1, H^+ +K^+ ATPase (Sus scrofa, UniProt P19156)", "T1 construct": "prepared from porcine stomach; from tissue; host or cells: porcine stomach", "T1 sequence (P19156 2-1034 limits assumed)": "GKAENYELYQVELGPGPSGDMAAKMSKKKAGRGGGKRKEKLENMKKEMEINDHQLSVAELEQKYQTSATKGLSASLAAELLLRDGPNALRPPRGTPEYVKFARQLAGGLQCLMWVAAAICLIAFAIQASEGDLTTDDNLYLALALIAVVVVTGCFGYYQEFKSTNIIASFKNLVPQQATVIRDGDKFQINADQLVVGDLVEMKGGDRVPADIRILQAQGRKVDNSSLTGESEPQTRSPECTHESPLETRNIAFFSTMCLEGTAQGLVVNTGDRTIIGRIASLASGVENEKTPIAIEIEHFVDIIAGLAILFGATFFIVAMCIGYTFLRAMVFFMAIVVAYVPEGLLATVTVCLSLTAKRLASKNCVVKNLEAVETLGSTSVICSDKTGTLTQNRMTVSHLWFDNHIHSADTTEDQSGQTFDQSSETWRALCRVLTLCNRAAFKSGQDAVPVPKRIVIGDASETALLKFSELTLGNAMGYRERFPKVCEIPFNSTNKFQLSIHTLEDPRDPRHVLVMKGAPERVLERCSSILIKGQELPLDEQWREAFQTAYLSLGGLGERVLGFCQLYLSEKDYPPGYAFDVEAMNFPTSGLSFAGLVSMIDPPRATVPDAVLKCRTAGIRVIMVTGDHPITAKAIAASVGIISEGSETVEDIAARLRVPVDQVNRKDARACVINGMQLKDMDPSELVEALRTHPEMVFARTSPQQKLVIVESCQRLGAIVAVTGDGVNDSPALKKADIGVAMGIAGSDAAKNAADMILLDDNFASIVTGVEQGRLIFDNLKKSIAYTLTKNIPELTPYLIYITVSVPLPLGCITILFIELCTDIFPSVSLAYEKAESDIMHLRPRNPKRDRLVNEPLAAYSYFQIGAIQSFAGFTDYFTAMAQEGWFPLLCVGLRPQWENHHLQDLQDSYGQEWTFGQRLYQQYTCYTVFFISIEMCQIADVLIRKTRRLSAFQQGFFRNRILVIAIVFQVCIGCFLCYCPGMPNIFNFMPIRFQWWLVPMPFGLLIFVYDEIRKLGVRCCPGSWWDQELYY", "T1 sequence (P18434 whole entry partner)": "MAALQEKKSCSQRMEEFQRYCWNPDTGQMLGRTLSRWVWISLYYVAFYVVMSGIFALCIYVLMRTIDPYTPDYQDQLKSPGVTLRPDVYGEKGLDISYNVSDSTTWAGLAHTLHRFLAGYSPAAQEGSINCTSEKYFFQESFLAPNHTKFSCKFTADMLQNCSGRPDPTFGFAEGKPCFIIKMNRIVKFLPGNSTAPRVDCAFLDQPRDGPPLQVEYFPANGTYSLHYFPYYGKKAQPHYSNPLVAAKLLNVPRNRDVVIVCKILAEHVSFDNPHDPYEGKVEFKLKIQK", "assay": "H+ +K+ ATPase inhibition (inorganic phosphoric acid release)", "format": "biochemical", "settings": "enzyme prepared from porcine stomach; 30 min with compound at room temperature, pH 6.1; then 30 min at 37° C., pH 7.4, 20 mM KCl", "description": "H^+ +K^+ ATPase (adenosine triphosphatase) (amount of protein: 10 μg) prepared from porcine stomach was added to a Pipes-TRIS [i.e. 2-amino-2-(hydroxymethyl)-1,3-propanediol] buffer solution (pH 6.1) containing 2 mM of piperazine N,N'-bis(2-ethanesulfonic acid), and the mixture was let stand at room temperature. A test compound was dissolved in dimethyl formamide, and the mixture was added to said H^+ +K^+ ATPase buffer solution so that the final concentration should be 1% and let stand for reaction for 30 minutes at room temperature. Then a 75 mM Pipes-TRIS buffer (1 ml, pH 7.4) (containing 4 mM MgCl2, 4 mM Na2 ATP, and 20 mM KCl) and a 75 mM Pipes-TRIS buffer (1 ml, pH 7.4) (containing 4 mM MgCl2, and 4 mM Na2 ATP) were added to the solution individually to make two kinds of samples and these samples were presented for reaction for 30 minutes at 37° C. 40% Trichloroacetic acid (0.3 ml) was added to each sample to stop the reaction. The solution were subjected to centrifugal separation (3000 rpm) for 10 minutes, and the supernatant was taken off, then the formed inorganic phosphoric acid was measured by Fiske and Subbarow's method [J. Biol. Chem. vol. 66, 375 (1925)]. The value of deducting the amount of inorganic phosphoric acid taken from the Pipes-Tris buffer not containing 20 mM KCl from that taken from the Pipes-Tris buffer containing 20 mM KCl was calculated in terms of unit protein and unit hour to be defined as an activity index of enzyme. Inhibition level (%) in doses of administration was estimated by control values and activity indices of enzyme, and from the obtained inhibition level (%), IC50 (dose of administration of compounds to inhibit in 50%) was obtained.", "units": {"IC50": "nM"}, "values": [{"smiles": "Cc1ccc2nc([S+]([O-])Cc3cccc4c3N(C)CCC4)[nH]c2c1", "note": "(stereo not shown) [Test compound No. 17, 1-methyl-8-(5-methyl-2-benzimidazolyl)sulfinylmethyl-1,2,3,4-tetrahydroquinoline]", "IC50": 530}, {"smiles": "CN1CCCc2cccc(C[S+]([O-])c3nc4ccc(Cl)cc4[nH]3)c21", "note": "(stereo not shown) [Test compound No. 18, 1-methyl-8-(5-chloro-2-benzimidazolyl)sulfinylmethyl-1,2,3,4-tetrahydroquinoline]", "IC50": 200}, {"smiles": "Cc1cccc2nc([S+]([O-])Cc3cccc4c3N(C)CCC4)[nH]c12", "note": "(stereo not shown) [Test compound No. 19, 1-methyl-8-(4-methyl-2-benzimidazolyl)sulfinylmethyl-1,2,3,4-tetrahydroquinoline]", "IC50": 410}, {"smiles": "COc1cc2nc([S+]([O-])Cc3cccc4c3N(C)CCC4)[nH]c2cc1F", "note": "(stereo not shown) [Test compound No. 20, 1-methyl-8-(5-fluoro-6-methoxy-2-benzimidazolyl)sulfinylmethyl-1,2,3,4-tetrahydroquinoline]", "IC50": 330}, {"smiles": "C=CCN1CCCc2cccc(C[S+]([O-])c3nc4ccccc4[nH]3)c21", "note": "(stereo not shown) [Test compound No. 21, 1-allyl-8-(2-benzimidazolyl)sulfinylmethyl-1,2,3,4-tetrahydroquinoline]", "IC50": 330}, {"smiles": "C=CCN1CCCc2cccc(C[S+]([O-])c3nc4ccc(OC)cc4[nH]3)c21", "note": "(stereo not shown) [Test compound No. 22, 1-allyl-8-(5-methoxy-2-benzimidazolyl)sulfinylmethyl-1,2,3,4-tetrahydroquinoline]", "IC50": 960}, {"smiles": "C=CCN1CCCc2cccc(C[S+]([O-])c3nc4ccc(F)cc4[nH]3)c21", "note": "(stereo not shown) [Test compound No. 23, 1-allyl-8-(5-fluoro-2-benzimidazolyl)sulfinylmethyl-1,2,3,4-tetrahydroquinoline]", "IC50": 490}, {"smiles": "CCCCN1CCCc2cccc(C[S+]([O-])c3nc4ccccc4[nH]3)c21", "note": "(stereo not shown) [Test compound No. 24, 1-n-butyl-8-(2-benzimidazolyl)sulfinylmethyl-1,2,3,4-tetrahydroquinoline]", "IC50": 180}, {"smiles": "CCCCN1CCCc2cccc(C[S+]([O-])c3nc4ccc(C)cc4[nH]3)c21", "note": "(stereo not shown) [Test compound No. 25, 1-n-butyl-8-(5-methyl-2-benzimidazolyl)sulfinylmethyl-1,2,3,4-tetrahydroquinoline]", "IC50": 330}, {"smiles": "C#CCN1CCCc2cccc(C[S+]([O-])c3nc4ccccc4[nH]3)c21", "note": "(stereo not shown) [Test compound No. 26, 1-propargyl-8-(2-benzimidazolyl)sulfinylmethyl-1,2,3,4-tetrahydroquinoline]", "IC50": 1600}, {"smiles": "Cc1ccc2nc([S+]([O-])Cc3cccc4c3N(Cc3ccccc3)CCC4)[nH]c2c1", "note": "(stereo not shown) [Test compound No. 28, 1-benzyl-8-(5-methyl-2-benzimidazolyl)sulfinylmethyl-1,2,3,4-tetrahydroquinoline]", "IC50": 650}, {"smiles": "CC1CCN(C)c2c(C[S+]([O-])c3nc4ccccc4[nH]3)cccc21", "note": "(stereo not shown) [Test compound No. 29, 1,4-dimethyl-8-(2-benzimidazolyl)sulfinylmethyl-1,2,3,4-tetrahydroquinolin]", "IC50": 250}, {"smiles": "CCN1CCCc2cc(Br)cc(C[S+]([O-])c3nc4ccccc4[nH]3)c21", "note": "(stereo not shown) [Test compound No. 31, 1-ethyl-6-bromo-8-(2-benzimidazolyl)sulfinylmethyl-1,2,3,4-tetrahydroquinoline]", "IC50": 6400}, {"smiles": "CCN1CCCc2cc(C)cc(C[S+]([O-])c3nc4ccccc4[nH]3)c21", "note": "(stereo not shown) [Test compound No. 32, 1-ethyl-6-methyl-8-(2-benzimidazolyl)sulfinylmethyl-1,2,3,4-tetrahydroquinoline]", "IC50": 920}, {"smiles": "C=CCN1CCCc2cccc(C[S+]([O-])c3nc4ccc(C)cc4[nH]3)c21", "note": "(stereo not shown) [Test compound No. 33, 1-allyl-8-(5-methyl-2-benzimidazolyl)sulfinylmethyl-1,2,3,4-tetrahydroquinoline]", "IC50": 580}, {"smiles": "Cc1ccc2nc([S+]([O-])Cc3cccc4c3N(Cc3ccc(F)cc3)CCC4)[nH]c2c1", "note": "(stereo not shown) [Test compound No. 34, 1-(4-fluorobenzyl)-8-(5-methyl-2-benzimidazolyl)sulfinylmethyl-1,2,3,4-tetrahydroquinoline]", "IC50": 2100}, {"smiles": "[O-][S+](Cc1cccc2c1N(CC1CC1)CCC2)c1nc2ccccc2[nH]1", "note": "(stereo not shown) [Test compound No. 35, 1-cyclopropylmethyl-8-(2-benzimidazolyl)sulfinylmethyl-1,2,3,4-tetrahydroquinoline]", "IC50": 250}, {"smiles": "CCN1CCCc2cccc(C[S+]([O-])c3nc4ccccc4[nH]3)c21", "note": "(stereo not shown) [Test compound No. 36, 1-ethyl-8-(2-benzimidazolyl)sulfinylmethyl-1,2,3,4-tetrahydroquinoline]", "IC50": 450}, {"smiles": "CCN1CCC(C)c2cccc(C[S+]([O-])c3nc4cc(OC)c(F)cc4[nH]3)c21", "note": "(stereo not shown) [Test compound No. 37, 1-ethyl-8-(5-fluoro-6-methoxy-2-benzimidazolyl)sulfinylmethyl-4-methyl-1,2,3,4-tetrahydroquinoline]", "IC50": 890}, {"smiles": "C=CCN1CC(C)Cc2cccc(C[S+]([O-])c3nc4ccccc4[nH]3)c21", "note": "(stereo not shown) [Test compound No. 38, 1-allyl-8-(2-benzimidazolyl)sulfinylmethyl-3-methyl-1,2,3,4-tetrahydroquinoline]", "IC50": 830}, {"smiles": "CC1=CCN(C)c2c(C[S+]([O-])c3nc4ccc(C)cc4[nH]3)cccc21", "note": "(stereo not shown) [Test compound No. 39, 1,4-dimethyl-8-(5-methyl-2-benzimidazolyl)sulfinylmethyl-1,2-dihydroquinoline]", "IC50": 130}, {"smiles": "COc1ccc2nc([S+]([O-])Cc3cccc4c3N(C)CC=C4C)[nH]c2c1", "note": "(stereo not shown) [Test compound No. 40, 1,4-dimethyl-8-(5-methoxy-2-benzimidazolyl)sulfinylmethyl-1,2-dihydroquinoline]", "IC50": 520}, {"smiles": "CCN1CC=C(C)c2cccc(C[S+]([O-])c3nc4ccccc4[nH]3)c21", "note": "(stereo not shown) [Test compound No. 41, 1-ethyl-8-(2-benzimidazolyl)sulfinylmethyl-4-methyl-1,2-dihydroquinoline 1/2-hydrate]", "IC50": 230}, {"smiles": "CC1=C(C)c2cccc(C[S+]([O-])c3nc4ccccc4[nH]3)c2N(C)C1", "note": "(stereo not shown) [Test compound No. 42, 1,3,4-trimethyl-8-(2-benzimidazolyl)sulfinylmethyl-1,2-dihydroquinoline]", "IC50": 550}, {"smiles": "CN1CCC(=O)c2cccc(C[S+]([O-])c3nc4ccccc4[nH]3)c21", "note": "(stereo not shown) [Test compound No. 43, 1-methyl-8-(2-benzimidazolyl)sulfinylmethyl-4-oxo-1,2,3,4-tetrahydroquinoline]", "IC50": 6700}, {"smiles": "CN1CCC(C)(O)c2cccc(C[S+]([O-])c3nc4ccccc4[nH]3)c21", "note": "(stereo not shown) [Test compound No. 45, 1,4-dimethyl-8-(2-benzimidazolyl)sulfinylmethyl-4-hydroxy-1,2,3,4-tetrahydroquinoline]", "IC50": 2200}, {"smiles": "CCC1(O)CCN(C)c2c(C[S+]([O-])c3nc4ccccc4[nH]3)cccc21", "note": "(stereo not shown) [Test compound No. 46, 1-methyl-8-(2-benzimidazolyl)sulfinylmethyl-4-ethyl-4-hydroxy-1,2,3,4-tetrahydroquinoline]", "IC50": 1800}, {"smiles": "CCN1CCC(c2ccccc2)c2cccc(C[S+]([O-])c3nc4ccc(C)cc4[nH]3)c21", "note": "(stereo not shown) [Test compound No. 47, 1-ethyl-8-(5-methyl-2-benzimidazolyl)sulfinylmethyl-4-phenyl-1,2,3,4-tetrahydroquinoline]", "IC50": 1500}, {"smiles": "CCN1CCC(OC)c2cccc(C[S+]([O-])c3nc4ccccc4[nH]3)c21", "note": "(stereo not shown) [Test compound No. 48, 1-ethyl-8-(2-benzimidazolyl)sulfinylmethyl-4-methoxy-1,2,3,4-tetrahydroquinoline]", "IC50": 1100}, {"smiles": "CCN1CCC(=NO)c2cccc(C[S+]([O-])c3nc4ccccc4[nH]3)c21", "note": "(stereo not shown) [Test compound No. 50, 1-ethyl-8-(2-benzimidazolyl)sulfinylmethyl-4-hydroxyimino-1,2,3,4-tetrahydroquinoline]", "IC50": 4700}, {"smiles": "C=CCOC1CCN(CC)c2c(C[S+]([O-])c3nc4ccccc4[nH]3)cccc21", "note": "(stereo not shown) [Test compound No. 51, 1-ethyl-8-(2-benzimidazolyl)sulfinylmethyl-4-allyloxy-1,2,3,4-tetrahydroquinoline]", "IC50": 2900}, {"smiles": "C=C1CCN(CC)c2c(C[S+]([O-])c3nc4ccccc4[nH]3)cccc21", "note": "(stereo not shown) [Test compound No. 52, 1-ethyl-8-(2-benzimidazolyl)sulfinylmethyl-4-methylene-1,2,3,4-tetrahydroquinoline]", "IC50": 3900}, {"smiles": "CCN1CC(C(=O)OC)Cc2cccc(C[S+]([O-])c3nc4ccccc4[nH]3)c21", "note": "(stereo not shown) [Test compound No. 53, 1-ethyl-8-(2-benzimidazolyl)sulfinylmethyl-3-methoxycarbonyl-1,2,3,4-tetrahydroquinoline]", "IC50": 4900}, {"smiles": "CCN1CC(CO)Cc2cccc(C[S+]([O-])c3nc4ccccc4[nH]3)c21", "note": "(stereo not shown) [Test compound No. 54, 1-ethyl-8-(2-benzimidazolyl)sulfinylmethyl-3-hydroxymethyl-1,2,3,4-tetrahydroquinoline]", "IC50": 1200}]}]}
